Measured values taken from PubChem BioAssay AID1259407 (Chemical Carcinogenesis Research Information System (CCRIS), 2018).
Activity calls are given as the source filed them. How the calls were made is not given here.

Tested on: CCRIS mutagenicity, Ames/micronucleus/aberration tests
Test: CCRIS mutagenicity studies
[1] = Test System: AMES SALMONELLA TYPHIMURIUM, Strain/Indicator: TA98, Metabolic Activation: NONE, Method: PREINCUBATION
[2] = Test System: AMES SALMONELLA TYPHIMURIUM, Strain/Indicator: TA100, Metabolic Activation: NONE, Method: PREINCUBATION

## CCOc1ccc(NC(C)=O)cc1
End Point: IN VITRO MICRONUCLEUS, Test System: CHL/IU CELLS, Metabolic Activation: RAT, LIVER, S-9, PHENOBARBITAL AND 5,6-BENZOFLAVONE
  mutagenic call: inactive; negative
End Point: IN VITRO MICRONUCLEUS, Test System: RAT KIDNEY FIBROBLAST NRK-49F, Metabolic Activation: NONE
  mutagenic call: inactive; negative
Test System: AMES SALMONELLA TYPHIMURIUM, Strain/Indicator: TA98, Metabolic Activation: GUINEA PIG, LIVER, S-9, PCB, Method: PREINCUBATION
  mutagenic call: inactive; negative
Test System: AMES SALMONELLA TYPHIMURIUM, Strain/Indicator: TA98, Metabolic Activation: HAMSTER, LIVER, S-9, AROCLOR 1254, Method: STANDARD PLATE
  mutagenic call: inactive; negative
Test System: AMES SALMONELLA TYPHIMURIUM, Strain/Indicator: TA98, Metabolic Activation: HAMSTER, LIVER, S-9, PCB, Method: PREINCUBATION
  mutagenic call: inactive; negative
Test System: AMES SALMONELLA TYPHIMURIUM, Strain/Indicator: TA98, Metabolic Activation: MOUSE, LIVER, S-9, AROCLOR 1254, Method: STANDARD PLATE
  mutagenic call: inactive; negative
Test System: AMES SALMONELLA TYPHIMURIUM, Strain/Indicator: TA98, Metabolic Activation: MOUSE, LIVER, S-9, PCB, Method: PREINCUBATION
  mutagenic call: inactive; negative
[1]
  mutagenic call: inactive; negative
Test System: AMES SALMONELLA TYPHIMURIUM, Strain/Indicator: TA98, Metabolic Activation: NONE, Method: STANDARD PLATE
  mutagenic call: inactive; negative
Test System: AMES SALMONELLA TYPHIMURIUM, Strain/Indicator: TA98, Metabolic Activation: RAT, LIVER, S-9, AROCLOR 1254, Method: STANDARD PLATE
  mutagenic call: inactive; negative
Test System: AMES SALMONELLA TYPHIMURIUM, Strain/Indicator: TA98, Metabolic Activation: RAT, LIVER, S-9, PCB, Method: PREINCUBATION
  mutagenic call: inactive; negative
Test System: AMES SALMONELLA TYPHIMURIUM, Strain/Indicator: TA100, Metabolic Activation: GUINEA PIG, LIVER, S-9, PCB, Method: PREINCUBATION
  mutagenic call: active; positive
Test System: AMES SALMONELLA TYPHIMURIUM, Strain/Indicator: TA100, Metabolic Activation: HAMSTER, LIVER, S-9, AROCLOR 1254, Method: STANDARD PLATE
  mutagenic call: active; positive
Test System: AMES SALMONELLA TYPHIMURIUM, Strain/Indicator: TA100, Metabolic Activation: HAMSTER, LIVER, S-9, KANECHLOR 400, Method: PREINCUBATION
  mutagenic call: active; positive
Test System: AMES SALMONELLA TYPHIMURIUM, Strain/Indicator: TA100, Metabolic Activation: HAMSTER, LIVER, S-9, PCB, Method: PREINCUBATION
  mutagenic call: active; positive
Test System: AMES SALMONELLA TYPHIMURIUM, Strain/Indicator: TA100, Metabolic Activation: HAMSTER, LIVER, S-9, Method: PREINCUBATION
  mutagenic call: inactive; negative
Test System: AMES SALMONELLA TYPHIMURIUM, Strain/Indicator: TA100, Metabolic Activation: MOUSE, LIVER, S-9, AROCLOR 1254, Method: STANDARD PLATE
  mutagenic call: inactive; negative
Test System: AMES SALMONELLA TYPHIMURIUM, Strain/Indicator: TA100, Metabolic Activation: MOUSE, LIVER, S-9, PCB, Method: PREINCUBATION
  mutagenic call: inactive; negative
[2]
  mutagenic call: inactive; negative
Test System: AMES SALMONELLA TYPHIMURIUM, Strain/Indicator: TA100, Metabolic Activation: NONE, Method: STANDARD PLATE
  mutagenic call: inactive; negative
Test System: AMES SALMONELLA TYPHIMURIUM, Strain/Indicator: TA100, Metabolic Activation: RAT, LIVER, S-9, AROCLOR 1254, Method: STANDARD PLATE
  mutagenic call: inactive; negative
Test System: AMES SALMONELLA TYPHIMURIUM, Strain/Indicator: TA100, Metabolic Activation: RAT, LIVER, S-9, KANECHLOR 400, Method: PREINCUBATION
  mutagenic call: inactive; negative
Test System: AMES SALMONELLA TYPHIMURIUM, Strain/Indicator: TA100, Metabolic Activation: RAT, LIVER, S-9, PCB, Method: PREINCUBATION
  mutagenic call: inactive; negative
Test System: AMES SALMONELLA TYPHIMURIUM, Strain/Indicator: TA100, Metabolic Activation: RAT, LIVER, S-9, Method: PREINCUBATION
  mutagenic call: inactive; negative
Test System: AMES SALMONELLA TYPHIMURIUM, Strain/Indicator: TA1535, Metabolic Activation: HAMSTER, LIVER, S-9, AROCLOR 1254, Method: STANDARD PLATE
  mutagenic call: inactive; negative
Test System: AMES SALMONELLA TYPHIMURIUM, Strain/Indicator: TA1535, Metabolic Activation: MOUSE, LIVER, S-9, AROCLOR 1254, Method: STANDARD PLATE
  mutagenic call: inactive; negative
Test System: AMES SALMONELLA TYPHIMURIUM, Strain/Indicator: TA1535, Metabolic Activation: NONE, Method: STANDARD PLATE
  mutagenic call: inactive; negative
Test System: AMES SALMONELLA TYPHIMURIUM, Strain/Indicator: TA1535, Metabolic Activation: RAT, LIVER, S-9, AROCLOR 1254, Method: STANDARD PLATE
  mutagenic call: inactive; negative
Test System: AMES SALMONELLA TYPHIMURIUM, Strain/Indicator: TA1537, Metabolic Activation: HAMSTER, LIVER, S-9, AROCLOR 1254, Method: STANDARD PLATE
  mutagenic call: inactive; negative
Test System: AMES SALMONELLA TYPHIMURIUM, Strain/Indicator: TA1537, Metabolic Activation: MOUSE, LIVER, S-9, AROCLOR 1254, Method: STANDARD PLATE
  mutagenic call: inactive; negative
Test System: AMES SALMONELLA TYPHIMURIUM, Strain/Indicator: TA1537, Metabolic Activation: NONE, Method: STANDARD PLATE
  mutagenic call: inactive; negative
Test System: AMES SALMONELLA TYPHIMURIUM, Strain/Indicator: TA1537, Metabolic Activation: RAT, LIVER, S-9, AROCLOR 1254, Method: STANDARD PLATE
  mutagenic call: inactive; negative
Test System: AMES SALMONELLA TYPHIMURIUM, Strain/Indicator: TA1538, Metabolic Activation: HAMSTER, LIVER, S-9, AROCLOR 1254, Method: STANDARD PLATE
  mutagenic call: inactive; negative
Test System: AMES SALMONELLA TYPHIMURIUM, Strain/Indicator: TA1538, Metabolic Activation: MOUSE, LIVER, S-9, AROCLOR 1254, Method: STANDARD PLATE
  mutagenic call: inactive; negative
Test System: AMES SALMONELLA TYPHIMURIUM, Strain/Indicator: TA1538, Metabolic Activation: NONE, Method: STANDARD PLATE
  mutagenic call: inactive; negative
Test System: AMES SALMONELLA TYPHIMURIUM, Strain/Indicator: TA1538, Metabolic Activation: RAT, LIVER, S-9, AROCLOR 1254, Method: STANDARD PLATE
  mutagenic call: inactive; negative
Test System: CHINESE HAMSTER V-79, Strain/Indicator: V-79/6-THIOGUANINE, Metabolic Activation: HAMSTER, LIVER, S-9, AROCLOR 1254, Method: SUSPENSION/PLATE
  mutagenic call: active; positive
Test System: CHINESE HAMSTER V-79, Strain/Indicator: V-79/6-THIOGUANINE, Metabolic Activation: NONE, Method: SUSPENSION/PLATE
  mutagenic call: inactive; negative
Test System: CHINESE HAMSTER V-79, Strain/Indicator: V-79/6-THIOGUANINE, Metabolic Activation: RAT, LIVER, S-9, PHENOBARBITAL AND BETA-NAPHTHOFLAVONE, Method: SUSPENSION/PLATE
  mutagenic call: inactive; negative
Test System: E. COLI, Strain/Indicator: WP2 UVRA, Metabolic Activation: HAMSTER, LIVER, S-9, AROCLOR 1254, Method: STANDARD PLATE
  mutagenic call: inactive; negative
Test System: E. COLI, Strain/Indicator: WP2 UVRA, Metabolic Activation: HAMSTER, LIVER, S-9, Method: STANDARD PLATE
  mutagenic call: inactive; negative
Test System: E. COLI, Strain/Indicator: WP2 UVRA, Metabolic Activation: MOUSE, LIVER, S-9, AROCLOR 1254, Method: STANDARD PLATE
  mutagenic call: inactive; negative
Test System: E. COLI, Strain/Indicator: WP2 UVRA, Metabolic Activation: MOUSE, LIVER, S-9, Method: STANDARD PLATE
  mutagenic call: inactive; negative
Test System: E. COLI, Strain/Indicator: WP2 UVRA, Metabolic Activation: NONE, Method: STANDARD PLATE
  mutagenic call: inactive; negative
Test System: E. COLI, Strain/Indicator: WP2 UVRA, Metabolic Activation: RAT, LIVER, S-9, AROCLOR 1254, Method: STANDARD PLATE
  mutagenic call: inactive; negative
Test System: E. COLI, Strain/Indicator: WP2 UVRA, Metabolic Activation: RAT, LIVER, S-9, Method: STANDARD PLATE
  mutagenic call: inactive; negative

## CC(=O)Nc1cnc2ccccc2c1
[1]
  mutagenic call: inactive; negative
Test System: AMES SALMONELLA TYPHIMURIUM, Strain/Indicator: TA98, Metabolic Activation: RAT, LIVER, S-9, KANECHLOR 500, Method: PREINCUBATION
  mutagenic call: inactive; negative
[2]
  mutagenic call: inactive; negative
Test System: AMES SALMONELLA TYPHIMURIUM, Strain/Indicator: TA100, Metabolic Activation: RAT, LIVER, S-9, KANECHLOR 500, Method: PREINCUBATION
  mutagenic call: inactive; negative

## CCOc1ccccc1[N+](=O)[O-]
[1]
  mutagenic call: inactive; negative
[2]
  mutagenic call: active; positive
Test System: AMES SALMONELLA TYPHIMURIUM, Strain/Indicator: TA1535, Metabolic Activation: NONE, Method: PREINCUBATION
  mutagenic call: active; positive
Test System: AMES SALMONELLA TYPHIMURIUM, Strain/Indicator: TA1537, Metabolic Activation: NONE, Method: PREINCUBATION
  mutagenic call: inactive; negative
Test System: AMES SALMONELLA TYPHIMURIUM, Strain/Indicator: TA1538, Metabolic Activation: NONE, Method: PREINCUBATION
  mutagenic call: inactive; negative

## [Ag]
End Point: In vivo micronucleus, Test System: Bone marrow polychromatic erythrocytes, Species: Rat, Strain/Sex: Sprague-Dawley/Male and Female, Route: Oral
  mutagenic call: inactive; negative
